Earlier results, collected in PMC8838197, “Coumarin-Resveratrol-Inspired Hybrids as Monoamine Oxidase B Inhibitors: 3-Phenylcoumarin versus trans-6-Styrylcoumarin” (Molecules, 2022).

Test system: MAO-B
Parameters: pIC50 MAO-B: unit not given here
Settings: cited from earlier work; for pIC50 MAO-B: Table S8

Row | Structure (SMILES) | pIC50 MAO-B | activity against MAO-B isoform (data set compounds) | MAO-B pIC50 (data set compounds)
1 | Cc1cc(=O)oc2cc(NC(=O)c3ccc(Cl)cc3)ccc12 [Compound 161] | 6.509 | – | –
2 | CC(=O)COc1ccc2oc(=O)c(-c3ccc(C)cc3)cc2c1 [Compound 15] | 5.258 | – | –
3 | COc1cccc(-c2cc3cc(C)ccc3oc2=O)c1 [Compound 5, 3-(3′-methoxyphenyl)-6-methylcoumarin] | 9.096 | picomolar range | –
4 | Cc1ccc2oc(=O)c(-c3ccc(Br)cc3)cc2c1 [Compound 64, 3-(4′-bromophenyl)-6-methylcoumarin] | 9.412 | – | > 6.5
5 | Cc1cc(=O)oc2cc(NC(=O)c3cccs3)ccc12 [Compound 162] | 5.799 | – | –
6 | O=c1oc2ccc(O)cc2cc1-c1cccc(Br)c1 [Compound 69] | 8.097 | – | > 6.5
7 | Cc1ccc(C(=O)Nc2cc3ccccc3oc2=O)cc1 [Compound 42] | 5.099 | – | –
8 | O=c1oc2ccccc2cc1-c1ccccc1 [Compound 40] | 4.928 | – | –
9 | COc1ccc(-c2cc3cc(C)ccc3oc2=O)cc1OC [Compound 19] | 8.564 | – | –
10 | COc1ccc2oc(=O)c(C(=O)Nc3ccc(Cl)cc3)cc2c1 [Compound 121] | 7.724 | – | > 6.5
11 | COc1cc(C(=O)Nc2c(O)c3ccccc3oc2=O)cc(OC)c1OC [Compound 92] | 4.433 | – | –
12 | CC#CCNc1cc2ccccc2oc1=O [Compound 149] | 4.922 | – | –
13 | Cc1ccc(C(=O)Nc2ccc3c(C)cc(=O)oc3c2)cc1 [Compound 160] | 6.046 | – | –
14 | Cc1cccc(-c2cc3c(ccc4ccccc43)oc2=O)c1 [Compound 80] | 5.62 | – | –
15 | C#CCNc1cc2ccccc2oc1=O [Compound 148] | 6.022 | – | –
16 | COc1cccc(-c2cc3c(ccc4ccccc43)oc2=O)c1 [Compound 76] | 8.613 | – | > 6.5
17 | Cc1ccc2oc(=O)c(C(=O)Nc3cccc(O)c3)cc2c1 [Compound 108] | 7.343 | – | –
18 | Cc1ccc2oc(=O)c(C(=O)Nc3cccc(Br)c3)cc2c1 [Compound 105] | 8.332 | – | –
19 | COc1ccc(-c2c(O)c3cc(C)ccc3oc2=O)cc1Cl [Compound 29] | 4.37 | – | –
20 | COc1ccc2occ(C(=O)Nc3cccc(C)c3)c(=O)c2c1 [Compound 130] | 7.662 | – | –
21 | Cc1cccc(-c2cc3cc(C)ccc3oc2=O)c1 [Compound 18] | 7.824 | – | –
22 | Cc1ccc2oc(=O)c(C(=O)Nc3ccc(Br)cc3)cc2c1 [Compound 106] | 7.943 | – | > 6.5

Row | Structure (SMILES) | pIC50 MAO-B | activity against MAO-B isoform (data set compounds) | MAO-B pIC50 (data set compounds)
23 | COc1ccc(-c2c(O)c3ccccc3oc2=O)cc1 [Compound 26] | 4.157 | – | –
24 | COc1ccccc1NC(=O)c1cc2cc(C)ccc2oc1=O [Compound 101] | 6.794 | – | –
25 | COc1ccc2oc(=O)c(C(=O)Nc3cccc(C)c3)cc2c1 [Compound 117] | 7.326 | – | –
26 | CC(=O)COc1cccc(-c2cc3cc(C)ccc3oc2=O)c1 [Compound 25] | 6.745 | – | –
27 | Cc1cccc2cc(-c3ccc(Br)cc3)c(=O)oc12 [Compound 39] | 7.701 | – | > 6.5
28 | Cc1ccc2occ(C(=O)Nc3ccccc3)c(=O)c2c1 [Compound 122] | 7.671 | – | –
29 | O=C(Nc1cc2ccccc2oc1=O)c1ccc(Cl)c(Cl)c1 [Compound 48] | 5.225 | – | –
30 | Cc1ccc2oc(=O)c(-c3cccc([N+](=O)[O-])c3)cc2c1 [Compound 87] | 8.222 | – | –
31 | COc1cc(OC)c(-c2cc3cc(C)ccc3oc2=O)cc1Br [Compound 140] | 6.879 | – | > 6.5
32 | COc1ccc(-c2c(O)c3cc(C)ccc3oc2=O)cc1 [Compound 27] | 4.494 | – | –
33 | Cc1ccc2oc(=O)c(C(=O)Nc3ccccc3C)cc2c1 [Compound 98] | 7.928 | – | –
34 | COc1ccc(C(=O)Nc2cc3ccccc3oc2=O)cc1OC [Compound 46] | 4.234 | – | –
35 | COc1ccc2oc(=O)c(-c3ccc(Br)cc3)cc2c1 [Compound 66, 3-(4′-bromophenyl)-6-mehtoxycoumarin] | 9.495 | – | > 6.5
36 | Cc1ccc2oc(=O)c(C(=O)Nc3ccccc3O)cc2c1 [Compound 107] | 7.738 | – | –
37 | Cc1ccc2oc(=O)c(C(=O)Nc3cccc(Cl)c3)cc2c1 [Compound 112] | 8.295 | – | –
38 | CCC#CCNc1ccc2c(C(F)(F)F)cc(=O)oc2c1 [Compound 152] | 5.094 | – | –
39 | COc1cc(-c2cc3c(ccc4ccccc43)oc2=O)cc(OC)c1OC [Compound 79] | 5.851 | – | –
40 | COc1ccc(-c2cc3c(ccc4ccccc43)oc2=O)cc1 [Compound 75] | 7.237 | – | –
41 | Cc1ccc2oc(=O)c(-c3ccccc3N)cc2c1 [Compound 89] | – | – | 5.664
42 | COc1cccc2cc(-c3ccc(Br)cc3)c(=O)oc12 [Compound 35] | 5.48 | – | –
43 | CCC#CCNc1ccc2c(C)cc(=O)oc2c1 [Compound 151] | 5.401 | – | –
44 | Cc1cc(=O)oc2cc(NC(=O)c3ccccc3)ccc12 [Compound 159] | 6.444 | – | –

Row | Structure (SMILES) | pIC50 MAO-B | activity against MAO-B isoform (data set compounds) | MAO-B pIC50 (data set compounds)
45 | Cc1ccc2oc(=O)c(C(=O)Nc3ccc(O)cc3)cc2c1 [Compound 115] | 6.206 | – | < 6.5
46 | Cc1ccc2oc(=O)c(-c3ccccc3[N+](=O)[O-])cc2c1 [Compound 86] | 5.258 | – | –
47 | Cc1cc(=O)oc2cc(NC(=O)CC(C)(C)C)ccc12 [Compound 157] | 6.602 | – | –
48 | COc1ccc2occ(C(=O)Nc3ccccc3)c(=O)c2c1 [Compound 129] | 7.379 | – | –
49 | O=c1oc2ccc3ccccc3c2cc1-c1ccccc1O [Compound 83] | 5.496 | – | –
50 | Cc1ccc(-c2cc3cc(OC4CCCC4)ccc3oc2=O)cc1 [Compound 16] | 4.84 | – | –
51 | COc1ccccc1-c1cc2c(ccc3ccccc32)oc1=O [Compound 77] | 7.385 | – | –
52 | COc1ccc2oc(=O)c(-c3ccccc3)cc2c1 [Compound 62] | 6.384 | – | –
53 | COc1cc(OC)cc(-c2cc3cccc(C)c3oc2=O)c1 [Compound 137] | 8.187 | – | > 6.5
54 | COc1ccc2occ(C(=O)Nc3cccc(O)c3)c(=O)c2c1 [Compound 132] | 6.945 | – | –
55 | COc1ccc(-c2cc3cc(C)ccc3oc2=O)cc1Br [Compound 21] | 8.488 | – | –
56 | Cc1ccc2oc(=O)c(-c3ccc(N)cc3)cc2c1 [Compound 91] | 8.387 | – | > 6.5
57 | O=c1oc2ccc3ccccc3c2cc1-c1cc(O)cc(O)c1 [Compound 85] | 4.503 | – | –
58 | CCC#CCNc1cc2ccccc2oc1=O [Compound 150] | 5.963 | – | –
59 | COc1ccc(-c2cc3cc(C)cc(Br)c3oc2=O)cc1 [Compound 9] | 8.491 | – | –
60 | Cc1ccc2oc(=O)c(-c3ccccc3)cc2c1 [Compound 1] | 6.547 | – | –
61 | COc1cccc2cc(-c3ccccc3)c(=O)oc12 [Compound 34] | 6.824 | – | –
62 | O=C(Nc1cc2ccccc2oc1=O)c1cccnc1 [Compound 96] | 4.676 | – | –
63 | COc1cc(-c2cc3cc(C)ccc3oc2=O)ccc1Br [Compound 20] | 9.131 | – | > 6.5
64 | COc1ccc2oc(=O)c(-c3cccc(Br)c3)cc2c1 [Compound 67, 3-(3′-bromophenyl)-6-methoxycoumarin] | 9.187 | – | > 6.5
65 | Cc1ccc2oc(=O)c(-c3ccccc3Br)cc2c1 [Compound 8] | 7.957 | – | > 6.5
66 | COc1cccc2cc(-c3cccc(C)c3)c(=O)oc12 [Compound 141] | 7.092 | – | > 6.5

Row | Structure (SMILES) | pIC50 MAO-B | activity against MAO-B isoform (data set compounds) | MAO-B pIC50 (data set compounds)
67 | COc1ccc(NC(=O)c2cc3cc(C)ccc3oc2=O)cc1 [Compound 103] | 6.527 | – | –
68 | COc1ccc(-c2cc3cc(OC)ccc3oc2=O)cc1 [Compound 52] | 7.143 | – | –
69 | Cc1ccc2oc(=O)c(-c3cccc(N)c3)cc2c1 [Compound 90] | 8.658 | – | –
70 | COc1cc(-c2cc3cc(C)ccc3oc2=O)cc(OC)c1OC [Compound 4] | 6.794 | – | –
71 | O=C(O)COc1ccc2oc(=O)c(-c3cccc(Br)c3)cc2c1 [Compound 74] | 8.62 | – | > 6.5
72 | COc1ccc2occ(C(=O)Nc3cccc(Cl)c3)c(=O)c2c1 [Compound 131] | 8.405 | – | –
73 | COc1ccc(C(=O)Nc2cc3ccccc3oc2=O)cc1 [Compound 44] | 4.516 | – | –
74 | O=C(Nc1c(O)c2ccccc2oc1=O)c1ccc(Cl)c(Cl)c1 [Compound 93] | 4.721 | – | –
75 | Cc1ccc2oc(=O)c(C(=O)Nc3ccccc3)cc2c1 [Compound 110] | 7.815 | – | –
76 | COc1cccc(NC(=O)c2cc3cc(C)ccc3oc2=O)c1 [Compound 102] | 7.996 | – | –
77 | COc1ccc2occ(C(=O)Nc3ccc(Cl)cc3)c(=O)c2c1 [Compound 134] | 7.987 | – | > 6.5
78 | COc1ccc2oc(=O)c(C(=O)Nc3cccc(Cl)c3)cc2c1 [Compound 118] | 8.044 | – | –
79 | COc1ccc(-c2cc3c(ccc4ccccc43)oc2=O)cc1OC [Compound 78] | 7.312 | – | > 6.5
80 | Cc1ccc2oc(=O)c(C(=O)Nc3cccc(O)c3)cc2c1 [Compound 113] | 7.343 | – | –
81 | Cc1ccc2occ(C(=O)Nc3cccc(Cl)c3)c(=O)c2c1 [Compound 124] | 8.377 | – | –
82 | COc1ccc2occ(C(=O)Nc3ccc(O)cc3)c(=O)c2c1 [Compound 135] | 6.171 | – | < 6.5
83 | Cc1ccc2occ(C(=O)Nc3ccc(Cl)cc3)c(=O)c2c1 [Compound 127] | 7.343 | – | > 6.5
84 | Cc1ccc2oc(=O)c(C(=O)Nc3ccc(O)cc3)cc2c1 [Compound 109] | 6.206 | – | < 6.5
85 | Cc1ccc2oc(=O)c(C(=O)Nc3ccccc3Br)cc2c1 [Compound 104] | 7.87 | – | –
86 | COc1ccc2oc(=O)c(-c3cccc(C)c3)cc2c1 [Compound 12] | 7.768 | – | > 6.5
87 | O=C(Nc1cc2ccccc2oc1=O)c1ccc(Cl)cc1 [Compound 45] | 5.71 | – | –
